Data taken from US7423026B2, “Methylated cyclodextrin complexes” (PediPharm Oy, priority 2002, dated 2008).

Experiments:
[1] = Aqueous phase-solubility study of cannabinoids with RM-β-CD; type: physicochemical; settings: for complexation constant for 1:1 inclusion complex, K1:1 / complexation constant for 1:2 inclusion complex, K1:2: with RM-β-CD, calculated from Ap-type phase-solubility diagram
Text: (§1) AU the phase-solubility diagrams (cannabinoid concentration as a function of CD concentration) are Ap-type (Higuchi and Connors 1965) and calculated complexation constants for 1:1 and 1:2 inclusion complexes has been shown in Table 1.

[2] = Aqueous phase-solubility study of cannabinoids with HP-β-CD; type: physicochemical; settings: calculated from Ap-type phase-solubility diagram
Text: as §1

[3] = Dissolution studies of CBD formulations in 2% RM-β-CD dissolution media (pH 6.6); type: physicochemical; settings: gelatine capsule, 1.0 mg pure CBD and 99 mg lactose, without RM-β-CD, 2% RM-β-CD media
[4] = Dissolution studies of THC formulations in 2% RM-β-CD dissolution media (pH 6.6); type: physicochemical; settings: gelatine capsule, 1.0 mg pure THC and 99 mg lactose, without RM-β-CD, 2% RM-β-CD media
[5] = Aqueous solubility of THC in HP-β-CD solution (Jarho et al.); type: physicochemical; settings: calculated from Jarho et al.
Method: Compared to earlier findings, methylated β-CD improves the aqueous solubility of cannabinoids more efficiently, imparting promising dissolution properties for cannabinoids. […] However, the complexation of cannabinoids with methylated β-CD is more efficient compared to HP-β-CD.
As discussed above, the bioavailability of THC is 6-20% after oral administration. THC is commercially available as a capsule containing 5-10 mg of THC (Marinol). […] Thus, it can be calculated that 2 g of HP-β-CD is needed to establish a dosage form containing 5 mg of complexed THC. This is an amount that is too much for tablet formulations. According to the invention it has now been shown that the same amount of THC can be complexed with 200 mg of RM-β-CD.

[6] = 40% solution of HP-β-CD; cited from earlier work
[7] = oral administration, depending on the drug vehicle; cited from earlier work

Row | SMILES | complexation constant for 1:1 inclusion complex, K1:1 [1] | complexation constant for 1:2 inclusion complex, K1:2 [1] [M⁻¹] | complexation constant for 1:1 inclusion complex, K1:1 [2] | complexation constant for 1:2 inclusion complex, K1:2 [2] [M⁻¹] | time until CBD is fully dissolved [3] [h] | amount of RM-β-CD to prepare the same formulation (1 mg of THC) ([1]; 1 mg of THC) [mg] | amount of RM-β-CD that complexes 5 mg of THC ([1]; same amount of THC (5 mg)) [mg] | time until THC is fully dissolved [4] [h] | amount of HP-β-CD needed for a dosage form containing 5 mg of complexed THC [5] [g] | amount of HP-β-CD needed to complex 1 mg of THC [5] [mg] | concentration of THC solution obtained [6] [µg/mL] | bioavailability [7]
1 | C=C(C)[C@@H]1CCC(C)=C[C@H]1c1c(O)cc(CCCCC)cc1O [CBD, cannabidiol] | 484 145 M^−1 | 8 | 13 844 M^−1 | 62 | 3 | – | – | – | – | – | – | –
2 | CCCCCc1cc(O)c2c(c1)OC(C)(C)[C@@H]1CCC(C)=C[C@@H]21 [THC, Δ^9-tetrahydrocannabinol] | 19 563 M^−1 | 38 | 4 222 M^−1 | 58 | – | 25.7 | 200 | 1 | 2 | 400 | 1000 | 6-20%
